Reference: ChEMBL document CHEMBL1149984, “Hygromycin A: preparation of aminocyclitol analogs defining the minimum functionality required for biological activity” (1992)
In brackets after ≈: the same amount, converted by molar mass.

Columns and labels:
Pasteurella multocida = assay: Minimum inhibitory concentration against Pasteurella multocida was determined; format: functional
[1] = test system: Brachyspira hyodysenteriae; assay: Minimum inhibitory concentration against Serpulina hyodysenteriae was determined; format: functional
[2] = Pasteurella multocida, read-out: MIC
[3] = Brachyspira hyodysenteriae, read-out: MIC

SMILES	MIC (Pasteurella multocida; [2]) [µg/mL]	MIC [1, 3] [µg/mL]	MIC (Pasteurella multocida) [µg/mL]	MIC [1] [µg/mL]
C/C(=C\c1ccc(O[C@@H]2O[C@H]([C@H](C)O)[C@@H](O)[C@@H]2O)c(O)c1)C(=O)N[C@@H]1CCCC[C@@H]1O	> 200	> 200	–	–
C=CCOc1ccc(/C=C(\C)C(=O)N[C@@H]2[C@H](O)[C@@H](O)CC[C@@H]2O)cc1O	–	–	>200	100 (≈ 275 µM)
C=CCOc1ccc(/C=C(\C)C(=O)N[C@@H]2[C@H](O)CCC[C@@H]2O)cc1O	100 (≈ 288 µM)	12.5 (≈ 36 µM)	–	–
C=CCOc1ccc(/C=C(\C)C(=O)N[C@@H]2[C@H](O)[C@@H](O)[C@H]3OCO[C@H]3[C@@H]2O)cc1O	1.56 (≈ 3.83 µM)	0.78 (≈ 1.91 µM)	–	–
C=CCOc1ccc(/C=C(\C)C(=O)N[C@@H]2[C@H](O)[C@@H](O)CC[C@@H]2O)cc1O (racemic)	–	–	25 (≈ 68.8 µM)	6.25 (≈ 17.2 µM)
CC(=O)[C@H]1O[C@@H](Oc2ccc(/C=C(\C)C(=O)N[C@@H]3[C@H](O)[C@@H](O)[C@H]4OCO[C@H]4[C@@H]3O)cc2O)[C@@H](O)[C@@H]1O [HYGROMYCIN A]	1.56 (≈ 3.05 µM)	1.56 (≈ 3.05 µM)	–	–
